Test results published in patent US8039444B2, “Antisense permeation enhancers” (Isis Pharmaceuticals, Inc., priority 2001, dated 2011).

Settings: monkey, not told, po

With “GCTGATTAGAGAGAGGTCCC (GCTGATTAGAGAGAGGTCCC; chemistry not given here) [antisense oligonucleotide]” the permeability was “poor permeability”.
